Assay [1] concerns the target T1, Transthyretin (Homo sapiens, UniProt P02766). The experiment in a line: Binding of Examples to Transthyretin - EC50 Determination. The method, then:
TTR SPA binding assays were performed in a final volume of 60 mI containing 100 ng human TTR (biotinylated recombinant protein) coupled to 25 pg SPA beads (streptavidin coated, Perkin Elmer, RPNQ0007) and 50 nM [3H] tafamidis (Moravek, MT-1003033), plus varying concentrations of test compound or vehicle. Briefly, assays were prepared at room temperature in 384-well plates (Corning, 3767) containing 200 nl_ of test compound in DMSO (or DMSO as vehicle). The plates also contained wells with a saturating concentration of unlabeled ligand (200 nl_ of 3 mM tafamidis or 3 mM thyroxine in DMSO) for measuring non-specific binding. Assays were initiated by addition of 20 mI of […] TTR protein in assay buffer (10 mM Tris pH 7.5, 150 mM NaCI, 0.25% Triton X-100) and 20 mI_ of 150 nM [3H] tafamidis in assay buffer. The plates were incubated 1 hour prior to addition of 20 mI_ of 1.25 mg/ml_ SPA beads diluted in assay buffer. The assays were incubated an additional 10 hours to allow binding to reach equilibrium and the amount of receptor-ligand complex was determined by liquid scintillation counting using a 1450 Microbeta Trilux (Wallac). The % effect values for test wells were calculated based on the total binding (vehicle, 0% effect) and non-specific binding (unlabeled ligand, 100% effect) wells on each assay plate. ECso values were then determined using a standard 4 parameter logistic dose response equation.

The target in assay [2] is T1, Transthyretin. Put plainly: KD Determination by SPR. The method, then:
Affinity and Reversibility -The binding affinity and kinetics of binding were measured using Surface Plasmon Resonance based binding assay. These experiments were carried out on Bruker SPR MASS-1 and MASS-2 instruments. There was no significant difference in results obtained on both these instruments. Bap-tagged TTR protein was captured on a Streptavidin coated sensor chip to achieve about 2000 to 3000 RUs of surface density. All the samples were prepared in buffer consisting of 10 mM Sodium Phosphate, pH 7.6, 100 mM KCI, 0.005% Tween-20 and 2% DMSO. The same buffer was used as the running buffer during the experiments. Compound samples were injected at a flow rate of 30 pL/min for 90 seconds of association time followed by at least 240 seconds of dissociation period. The compounds were tested in a concentration series consisting of at least 6 samples (usually 10) made with 5-fold, 3-fold, or 2-fold dilution. The highest concentration was […] or selected based on compound binding affinity observed in a previous experiment. […] The data were processed and analyzed using Bruker Analyzer and Scrubber to calculate binding affinities by fitting the data to 1:1 binding model. […] Tafamidis binds to TTR in a reversible manner with calculated residence time of around 40 seconds.
On the technique in general: SPR reads the build-up and loss of mass on a sensor chip optically.

One may read the EC50 as the concentration that produces a half-maximal response. A higher EC50 goes with lower potency in that assay. On Transthyretin [1], `Cc1cc(-c2c(C)n[nH]c2C)c2ncsc2c1` [WO2022112919, Example 13] returned an EC50 of 0.021 µM.
Molecule `Cc1n[nH]c(C)c1-c1cc(F)cc2scnc12` [WO2022112919, Example 15] yielded an EC50 on Transthyretin [1] of 0.021 µM. This counts as double-digit nanomolar.
`Cc1[nH]nc(C#N)c1-c1ccc(C(F)(F)F)c2scnc12` [WO2022112919, Example 9]: the EC50 on Transthyretin [1] was 0.036 µM.
One may read the Kd as the constant that tells how readily two partners part at equilibrium. `Cc1n[nH]c(C)c1-c1ccnc2scnc12` [WO2022112919, Example 19] registered a Kd at Transthyretin [2] of 0.039 µM. This counts as double-digit nanomolar.
On to `Cc1n[nH]c(C)c1-c1cccc2ncsc12` [WO2022112919, Example 2], for which the Kd at Transthyretin [2] was 0.017 µM. The EC50 on Transthyretin [1] was determined as 0.014 µM.
With `COc1cc(-c2c(C)n[nH]c2C)c2ncsc2c1` [WO2022112919, Example 14], the EC50 on Transthyretin [1] is 0.025 µM.
With `Cc1[nH]nc(C#N)c1-c1ccc(C)c2scnc12` [WO2022112919, Example 8], the midpoint of the response at Transthyretin [1], the EC50, lay at 0.02 µM.

The record behind these values is BindingDB's records for patent WO2022112919 (Pfizer, 2022).
